Structures can show the parent of a compound that is named as a salt. Where two headings read alike, the source gives them in different places. Bounds are passed on as bounds.

The test system of series [1] is adriamycin-resistant subline (P388/ADR). Nature of the series: inhibition of growth rate of adriamycin-resistant subline P388/ADR. The format is cell-based, murine. Conditions: P388/ADR cells, compound alone, read-out: B: IC50 for the adriamycin-resistant subline (P388/ADR). The source says:
Such cancer cells are characterized by the fact that they are resistant to a large variety of anti-tumour agents and thus become extremely and increasingly difficult to treat. The compounds of formula I, including those described in British Patent Specification No. 883013, and salts thereof lower this resistance and thus greatly increase the effectiveness of drugs conventionally used in chemotherapy. Such properties can be tested according to the method described in Br. J. […] The Table which follows sets forth for a representative number of compounds of formula I B: the IC50 for the adriamycin-resistant subline (P388/ADR); and […]

In series [2] the test system is P388 murine leukemia cells. As to the kind of experiment: inhibition of growth rate of P388 cells. The note with it: Mus musculus. It is filed as cell-based. The source says:
(§1) Such cancer cells are characterized by the fact that they are resistant to a large variety of anti-tumour agents and thus become extremely and increasingly difficult to treat. […] Such properties can be tested according to the method described in Br. J.

Series [3] deals with P388/ADR cells. As to the kind of experiment: inhibition of P388/ADR cells in the presence of a subtoxic concentration of adriamycin (restoring drug sensitivity). It is filed as cell-based, murine. The note with it: Mus musculus.
Text: as §1

Series [4] can be described thus: toxicity, LD50 i.p. after administration of a single dose to mice. Conditions: mouse, in vivo, ip, read-out: T: toxicity, LD50. An excerpt: For some of these compounds, the Table also contains toxicity data ("T", LD50, mg/kg i.p. after administration of a single dose to mice).
Setting [5] is: P388 cells, compound alone, read-out: A: concentration for inhibiting the growth rate of P388 cells by 50% (IC50).
Setting [6] is: P388/ADR cells, with adriamycin 0.2 μM, read-out: C: IC50 for P388/ADR cells, measured in the presence of a subtoxic concentration of adriamycin.
Setting [7] is: P388, read-out: A: concentration for inhibiting the growth rate of P388 cells by 50% (IC50), P388 cells, compound alone.
Setting [8] is: P388/ADR, read-out: C: IC50 for P388/ADR cells, measured in the presence of a subtoxic concentration of adriamycin, P388/ADR cells, with adriamycin 0.2 μM.

Take `CCC(C(=O)OCCN1CCN(CCOC(=O)C(CC)c2ccccc2F)CC1)c1ccccc1F` (centres unmarked) [Compound 1775, N,N'-bis[2-[2-(2-fluorophenyl)-2-ethylacetoxy]ethyl]piperazine dihydrochloride]: the IC50 in series [1] (Mus musculus, P388/ADR) amounted to 60 µM; in series [2] (setting [5]), 60 µM; in series [3] (setting [6]), 1.5 µM.

Consider `O=C(OCCN1CCN(CCOC(=O)C(c2ccccc2)c2ccccc2)CC1)C(c1ccccc1)c1ccccc1` [Compound 1839, N,N'-bis(2-diphenylacetoxyethyl)piperazine], for which the IC50 in series [1] (Mus musculus, P388/ADR) was > 60 µM; in series [2] (setting [7]), > 60 µM; in series [3] (setting [8]), 0.2 µM. The LD50 – broadly, the dose expected to kill half of the subjects tested – in series [4] was in the range of 200 to 400 mg/kg.

Take `CCC(C(=O)OCCN1CCN(CCOC(=O)C(CC)c2ccccc2)CC1)c1ccccc1.Cl.Cl` (centres unmarked) [Compound 480, N,N'-bis[2-(2-phenyl-2-ethylacetoxy)ethyl]piperazine dihydrochloride]: the IC50 was 60 µM in series [1] (Mus musculus, P388/ADR) and 45 µM in series [1] (dihydrochloride). Besides, in series [4], the LD50 was in the range of 100 to 200 mg/kg.

Turning to `CCC(C(=O)OCCN1CCN(CCOC(=O)C(CC)c2ccccc2Cl)CC1)c1ccccc1Cl` (centres unmarked) [Compound 1779, N,N'-bis[2-[2-(2-chlorophenyl)-2-ethylacetoxy]ethyl]piperazine dihydrochloride], the IC50 in series [1] (Mus musculus, P388/ADR) turned out to be 40 µM; in series [2] (setting [5]) it was 60 µM; in series [3] (setting [6]) it was 1 µM.

For the molecule `CCCC(C(=O)OCCN1CCN(CCOC(=O)C(CCC)c2ccc(OC)c(OC)c2)CC1)c1ccc(OC)c(OC)c1` (centres unmarked) [Compound 1850, N,N'-bis[2-[2-(3,4-dimethoxyphenyl)-2-propylacetoxy]ethyl]piperazine dihydrochloride], the IC50 in series [1] (Mus musculus, P388/ADR) is 20 µM; in series [2] (setting [5]), 20 µM; in series [3] (setting [6]) it was 0.2 µM.

For `CCC(C(=O)OCCN1CCN(CCOC(=O)C(CC)c2ccccc2C)CC1)c1ccccc1C.Cl.Cl` (centres unmarked) [Compound 1776, N,N'-bis[2-[2-(2-methylphenyl)-2-ethylacetoxy]ethyl]piperazine dihydrochloride], the IC50 in series [1] (Mus musculus, P388/ADR) was 30 µM; in series [2] (setting [7]), 30 µM; in series [3] (setting [8]), 0.8 µM. The 50% lethal dose (LD50) in series [4] is 200 to 400 mg/kg.

As for `CCC(C(=O)OCCCN1CCN(CCCOC(=O)C(CC)c2ccccc2)CC1)c1ccccc1` (centres unmarked) [Compound 1843, N,N'-bis[3-(2-phenyl-2-ethylacetoxy)propyl]piperazine], the IC50 in series [1] (Mus musculus, P388/ADR) came to 8 µM; in series [2] (setting [5]) it was 7 µM; in series [3] (setting [6]), 0.45 µM.

As to `CCCCC(C(=O)OCCN1CCN(CCOC(=O)C(CCCC)c2ccc(OC)c(OC)c2)CC1)c1ccc(OC)c(OC)c1` (centres unmarked) [Compound 1849, N,N'-bis[2-[2-n-butyl-2-(3,4-dimethoxyphenyl)acetoxy]ethyl]piperazine dihydrochloride], the IC50 in series [1] (Mus musculus, P388/ADR) was found to be 10 µM; in series [2] (setting [5]) it was 12 µM; in series [3] (setting [6]), 0.2 µM.

Regarding `CCCC(C(=O)OCCN1CCN(CCOC(=O)C(CCC)c2ccccc2)CC1)c1ccccc1` (centres unmarked) [Compound 1838, N,N'-bis[2-(2-n-propyl-2-phenylacetoxy)ethyl]piperazine], the IC50 in series [1] (Mus musculus, P388/ADR) amounted to 20 µM; in series [2] (setting [7]), 20 µM; in series [3] (setting [8]), 0.2 µM. The LD50 in series [4] is 200 to 400 mg/kg.

For `CCC(C(=O)OCCN1CCN(CCOC(=O)C(CC)c2ccc(Cl)cc2)CC1)c1ccc(Cl)cc1` (centres unmarked) [Compound 1778, N,N'-bis[2-[2-(4-chlorophenyl)-2-ethylacetoxy]ethyl]piperazine dihydrochloride], the IC50 in series [1] (Mus musculus, P388/ADR) turned out to be 20 µM; in series [2] (setting [5]), 30 µM; in series [3] (setting [6]), 1 µM.

Consider `CCC(C(=O)OCCN1CCN(CCOC(=O)C(CC)c2ccc(OC)c(OC)c2)CC1)c1ccc(OC)c(OC)c1.Cl.Cl` (centres unmarked) [Compound 1835, N,N'-bis[2-[2-(3,4-dimethoxyphenyl)-2-ethylacetoxy]ethyl]piperazine dihydrochloride], for which the IC50 in series [1] (Mus musculus, P388/ADR) came out at 120 µM; in series [2] (setting [7]) it was 120 µM; in series [3] (setting [8]) it was 1.2 µM. In series [4], the 50% lethal dose (LD50) is ~200 mg/kg.

Take `CC(C(=O)OCCN1CCN(CCOC(=O)C(C)(c2ccccc2)c2ccccc2)CC1)(c1ccccc1)c1ccccc1` [Compound 1854, N,N'-bis[2-(2,2-diphenyl-2-methylacetoxy)ethyl]piperazine dihydrochloride]: the IC50 in series [1] (Mus musculus, P388/ADR) worked out at 45 µM; in series [2] (setting [5]), 20 µM; in series [3] (setting [6]) it was 0.2 µM.

With `CCC(C(=O)OCCN1CCN(CCC(=O)Nc2c(C)cccc2C)CC1)c1ccccc1` (centres unmarked) [Compound 1774, 3-[1-(2-Phenyl-2-ethylacetoxy)ethyl-4-piperazino]propion-2,6-dimethylanilide dihydrochloride], the IC50 in series [1] (Mus musculus, P388/ADR) was > 60 µM; in series [2] (setting [7]) it was > 60 µM; in series [3] (setting [8]) it was 1.2 µM. In series [4], the LD50 was ~200 mg/kg.

In the case of `CCC(C(=O)OCCN1CCN(CCOC(=O)C(CC)c2ccc(F)cc2)CC1)c1ccc(F)cc1` (centres unmarked) [Compound 1777, N,N'-bis[2-[2-(4-fluorophenyl)-2-ethylacetoxy]ethyl]piperazine dihydrochloride], the IC50 in series [1] (Mus musculus, P388/ADR) stood at 60 µM; in series [2] (setting [5]) it was 60 µM; in series [3] (setting [6]), 1.2 µM.

As for `Cc1cccc(C)c1NC(=O)CCN1CCN(CCOC(=O)C(c2ccccc2)c2ccccc2)CC1` [Compound 1853, 3-[1-(2-diphenylacetoxyethyl)-4-piperazino]propion-2,6-dimethylanilide dihydrochloride], the IC50 in series [1] (Mus musculus, P388/ADR) worked out at 60 µM; in series [2] (setting [5]), 60 µM; in series [3] (setting [6]), 1.2 µM.

The record behind these values is patent US5190946A, “Methods and compounds” (Hoffmann-La Roche Inc., priority 1990, dated 1993).
